Assay results taken from ChEMBL document CHEMBL1143158, “Tritium radiolabelling of PB28, a potent sigma-2 receptor ligand: pharmacokinetic and pharmacodynamic characterization” (Bioorg Med Chem Lett, 2008).

Assays:
[1] = target: Sigma non-opioid intracellular receptor 1 (Rattus norvegicus, UniProt Q9R0C9); assay: Binding affinity to sigma 1 receptor in rat liver membrane; type: cell membranes
[2] = Binding affinity to sigma 2 receptor in rat liver membrane by saturation analysis; type: cell membranes
[3] = Displacement of [3H]PB28 from sigma 2 receptor in rat liver membrane; type: cell membranes
[4] = Displacement of [3H]DTG from sigma 2 receptor in rat liver membrane; type: cell membranes
[5] = species: Rattus norvegicus; assay: Selectivity for rat sigma 2 receptor over rat sigma1 receptor; details: tested as the 3H-labelled form

Sigma non-opioid intracellular receptor 1, sequence (Q9R0C9 whole entry): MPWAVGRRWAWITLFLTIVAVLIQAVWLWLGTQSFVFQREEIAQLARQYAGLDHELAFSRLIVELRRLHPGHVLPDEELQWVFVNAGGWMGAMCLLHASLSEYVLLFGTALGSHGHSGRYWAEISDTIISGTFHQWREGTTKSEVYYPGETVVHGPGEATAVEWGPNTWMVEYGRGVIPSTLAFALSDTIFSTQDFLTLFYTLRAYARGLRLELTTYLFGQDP

Row | Structure (SMILES) | Ki [1] | Kd [2] | Ki [3] | Ki [4] | Selectivity ratio [5]
1 | O=C(CCCN1CCC(O)(c2ccc(Cl)cc2)CC1)c1ccc(F)cc1 [HALOPERIDOL] | – | – | 5.85 nM | 7.38 nM | –
2 | [3H]C([3H])([3H])Oc1ccc(C)cc1C(=O)NCCCCN1CCc2cc(OC)c(OC)cc2C1 | – | 0.66 nM | – | – | –
3 | Cc1ccccc1NC(=N)Nc1ccccc1C [DITOLYLGUANIDINE] | – | – | 42 nM | – | –

Results, then the compound that gave them:

Row | Ki [1] | Kd [2] | Ki [3] | Ki [4] | Selectivity ratio [5] | Structure (SMILES)
4 | 13.6 nM | 0.12 nM | – | – | – | [3H]C1CCCCC1([3H])N1CCN(CCCC2CCCc3c(OC)cccc32)CC1 (centres undefined)
5 | – | – | 0.57 nM | 0.34 nM | 40 | COc1cccc2c1CCCC2CCCN1CCN(C2CCCCC2)CC1 (centres undefined)
